Measurements published in patent US7659267B2, “1,3-Benzothiazinone derivatives, process for producing the same use thereof” (Takeda Pharmaceutical Company Limited, priority 2002, dated 2010).

Tests used:
[1] = test system: primary cardiomyocytes from newborn rats; test: Cardiomyocyte apoptosis inhibitory activity (serum-free culture, viable cell number by WST-8); type: cell-based; conditions: Rattus norvegicus, 96 h, mean of three independent experiments, concentration required to increase the mean viable cell number by 50% vs. no test compound, serum-free Medium 199, 4 days, read-out: Minimum Effective Concentration
Text: Cardiomyocyte Apoptosis Inhibitory Activity
Newborn rats (within 1 day after birth) were obtained from pregnant Wistar rats purchased from Charles River Japan, Inc., anesthetized under ether, and sterilized with 70% ethanol. Then the heart was excised with tweezers. The excised heart was washed with a phosphate buffered saline (T900; manufactured by Takara) and cut into pieces with surgical scissors. The tissue pieces were washed 4 to 5 times with a phosphate buffered saline to remove a majority of blood-derived non-myocardial cells. To the tissue pieces derived from 10 newborns, 5 ml of enzyme solution [solution prepared by dissolving trypsin (1.25 mg)(manufactured by Difco) and collagenase (0.25 mg)(manufactured by Sigma) in phosphate buffered saline (PBS)(1 ml)] was added and the mixture was stirred with a stirrer for 15 minutes while maintaining at 37° C. After 2.5 ml of the enzyme solution was added thereto, the mixture was stirred for further 15 minutes. This procedure was repeated twice. Subsequently, Medium 199 (manufactured by Gibson) containing 10% fetal calf serum (manufactured by Biowiker) was added in a half volume of the enzyme solution to terminate the enzyme reaction. The cells were filtered through a cell strainer (manufactured by Falcon) and then centrifuged at 400×g for 5 minutes to collect the cells.
The cells thus collected from the 10 newborns were suspended in 50 ml of Medium 199 containing 10% fetal calf serum. The suspension was plated onto 100 mm Petri dishes (manufactured by Iwaki) in a volume of 10 ml each/dish and cultured for 1 hour in a CO2 incubator set at 5% CO2 and 37° C. The cells were then recovered, filtered through a cell strainer and centrifuged at 400×g for 5 minutes to collect the primary cardiomyocytes derived from the newborn rats.
Then, the cardiomyocytes from the newborn rats (10) were suspended in 2 ml of hypotonic solution [prepared by dissolving NH4Cl (8.29 g), KHCO3 (1.0 g), 37 mg of EDTA/2Na (disodium ethylenediaminetetraacetate)(manufactured by Dojin Chemical Laboratory) in water (1 L)] and the suspension was allowed to stand for 3 minutes to disrupt erythrocytes. After 10 ml of Medium 199 containing 10% fetal calf serum was added thereto, the mixture was centrifuged at 400×g for 5 minutes to collect the primary cardiomyocytes from newborn rats. The cells were suspended in Medium 199 containing 10% fetal calf serum. The suspension was then filtered through a cell strainer. An aliquot of the resulting cardiomyocyte suspension was taken and 0.3% trypan blue was added thereto. The mixture was mildly mixed and the number of cardiomyocytes was counted with a hemocytometer.
The primary cardiomyocytes from the newborn rats were suspended at a density of 3×10^6 cells/ml in Medium 199 containing 10% fetal calf serum. The suspension was plated onto a 96-well plate in a volume of 0.1 ml/well, followed by incubation in a CO2 incubator set at 5% CO2 and 37° C. for a day. After the plate was stirred with a micromixer (manufactured by Taiyo Kagaku Kogyo), the medium was exchanged 3 times with serum-free Medium 199 and then test compounds were added thereto. The cells were cultured for further 4 days to induce apoptosis. Subsequently, fetal calf serum was added thereto at a concentration of 10%, and the cells were further cultured for about 17 hours in a CO2 incubator set at 5% CO2 and 37° C. The number of viable cells was determined with Cell Counting Kit (manufactured by Dojin Chemical Laboratory) using as a chromogen WST-8 [2-(2-methoxy-4-nitrophenyl)3-(4-nitrophenyl)-5-(2,4-disulfophenyl)-2H-tetrazolium, monosodium salt] to assess the cardiomyocyte apoptosis inhibitory activity.
The experiment described above was triplicated in an independent manner.
In the TABLE, the minimum effective concentration is defined as the concentration of the test compound required to increase the mean viable cell number by 50% as compared to that in the absence of any test compound.

[2] = test system: antioxidant response element (ARE) of rat glutathione S-transferase Ya subunit gene in Rat H9c2 cells; test: Antioxidant response element (ARE)-dependent transcriptional activation activity (luciferase reporter); type: cell-based; conditions: concentration causing luminescence of 200% of test compound-free group (100%); H9c2 cells with pGL3-ARE reporter, about 24 hours
Text: Antioxidant Response Element (ARE)-dependent Transcriptional Activation Activity
(1) Construction of Luciferase Reporter Vector Bearing Antioxidant Response Element (ARE)
ARE-containing luciferase reporter vectors pGL3-ARE and pGL3-ARE 694G were constructed based on The Journal of Biological Chemistry, 266, 11632, 1991 and The Journal of Biological Chemistry, 275, 40134, 2000, by synthesizing ARE (SEQ ID NO: 1) for rat glutathione S-transferase Ya subunit gene and mutated ARE, i.e., mutant ARE (A694G)(SEQ ID NO: 2) oligonucleotide and then transfecting them to the NheI/BglII site of pGL3-Promoter Vector (manufactured by Promega Corp.), respectively.
(2) Assay for Antioxidant Response Element (ARE)-dependent Transcriptional Activation Activity
Rat H9c2 cells were suspended in Dulbecco's modified Eagle's medium (10% FBS, D-MEM medium) containing […] heat-inactivated fetal calf serum in 7×10^4 cells/ml. […] After allowing to stand for 30 minutes, fluorescence levels by luciferase were determined using a WALLAC ARVO SX (manufactured by Perkin-Elmer). Taking the emitted luminescence of test compound-free group as 100%, the ARE-dependent transcriptional activation was shown in terms of the concentration of test compound, which caused to emit the luminescence of 200% (EC200: μM).

melting point	SMILES	minimal effective concentration [1]	EC200 [2]
139.6 to 139.8 °C	O=c1nc(-c2ccccc2C(F)(F)F)sc2ccccc12 [Example 19, 2-(2-Trifluoromethylphenyl)-4H-1,3-benzothiazin-4-one]	–	–
199.6 to 199.7 °C	N#Cc1cccc(-c2nc(=O)c3ccccc3s2)c1 [Example 8, 2-(3-Cyanophenyl)-4H-1,3-benzothiazin-4-one]	0.025 µM	–
114.6 to 114.7 °C	O=c1nc(-c2cccc(C(F)(F)F)c2)sc2ccccc12 [Example 20, 2-(3-Trifluoromethylphenyl)-4H-1,3-benzothiazin-4-one]	–	1.5 µM
231.4 to 231.5 °C	CC(=O)Nc1ccc(-c2nc(=O)c3ccccc3s2)cc1 [Example 16, N-[4-(4-Oxo-4H-1,3-benzothiazin-2-yl)phenyl]acetamide]	0.021 µM	–
–	O=c1nc(-c2ccc(-c3ccccc3)cc2)sc2ccccc12 [Example 18, 2-(1,1′-Biphenyl-4-yl)-4H-1,3-benzothiazin-4-one]	0.083 µM	–
134.1 to 134.2 °C	Cc1cc(Cl)ccc1-c1nc(=O)c2ccccc2s1 [compound 14, 2-(4-Chloro-2-methylphenyl)-4H-1,3-benzothiazin-4-one]	–	–
187.1 to 188.3 °C	CC(C)=C1NC(=O)c2ccccc2S1 [Example 5, 2-Isopropylidene-2,3-dihydro-4H-1,3-benzothiazin-4-one]	–	–
122.5 to 122.6 °C	O=c1nc(-c2ccc(C(F)(F)F)cc2)sc2ccccc12 [Example 9, 2-(4-Trifluoromethylphenyl)-4H-1,3-benzothiazin-4-one]	0.088 µM	–
161.6 to 161.7 °C	O=c1nc(-c2cccc(Br)c2)sc2ccccc12 [Example 11, 2-(3-Bromophenyl)-4H-1,3-benzothiazin-4-one]	–	–
119.5 to 119.6 °C	O=c1nc(C2CC2)sc2ccccc12 [Example 1, 2-Cyclopropyl-4H-1,3-benzothiazin-4-one]	0.072 µM	–
275 °C (dec.)	O=c1nc(-c2ccc(O)cc2)sc2ccccc12 [Example 12, 2-(4-Hydroxyphenyl)-4H-1,3-benzothiazin-4-one]	–	–
170.8 to 178.2 °C	CCNc1cc(-c2nc(=O)c3ccccc3s2)ccc1C(=O)OC [compound 15, Methyl 2-(ethylamino)-4-(4-oxo-4H-1,3-benzothiazin-2-yl)benzoate]	–	–
145.6 to 147.1 °C	O=C1NC(=C2CCCCC2)Sc2ccccc21 [Example 4, 2-Cyclohexylidene-2,3-dihydro-4H-1,3-benzothiazin-4-one]	0.042 µM	–
164.3 to 164.4 °C	COC(=O)c1cccc(-c2nc(=O)c3ccccc3s2)c1 [Example 21, Methyl 3-(4-oxo-4H-1,3-benzothiazin-2-yl)benzoate]	–	–
–	CC(=O)Nc1cccc(-c2nc(=O)c3ccccc3s2)c1 [Example 13, N-[3-(4-Oxo-4H-1,3-benzothiazin-2-yl)phenyl]acetamide]	0.062 µM	–
197.5 to 197.6 °C	CC(=O)c1ccc(-c2nc(=O)c3ccccc3s2)cc1 [Example 10, 2-(4-Acetylphenyl)-4H-1,3-benzothiazin-4-one]	0.062 µM	–
146.7 to 149.4 °C	O=C1NC(=C2CCC2)Sc2ccccc21 [Example 2, 2-Cyclobutylidene-2,3-dihydro-4H-1,3-benzothiazin-4-one]	0.02 µM	–
179.8 to 180.2 °C	O=C(O)CCc1cccc(-c2nc(=O)c3ccccc3s2)c1 [Example 7, 3-[3-(4-Oxo-4H-1,3-benzothiazin-2-yl)phenyl]propionic acid]	–	–
130.9 to 131 °C	COC(=O)C(Cc1cccc(-c2nc(=O)c3ccccc3s2)c1)NC(=O)c1ccccc1 (centres unmarked) [Example 22, Methyl 2-(benzoylamino)-3-[3-(4-oxo-4H-1,3-benzothiazin-2-yl)phenyl]propionate]	–	–
190.4 to 191.4 °C	O=C1NC(=C2CCCC2)Sc2ccccc21 [Example 3, 2-Cyclopentylidene-2,3-dihydro-4H-1,3-benzothiazin-4-one]	0.047 µM	–
